In the test the target is T1, porcine pancreatic lipase (Sus scrofa, UniProt P00591).
T1 construct: purchased Sigma
T1 sequence (P00591 1-450): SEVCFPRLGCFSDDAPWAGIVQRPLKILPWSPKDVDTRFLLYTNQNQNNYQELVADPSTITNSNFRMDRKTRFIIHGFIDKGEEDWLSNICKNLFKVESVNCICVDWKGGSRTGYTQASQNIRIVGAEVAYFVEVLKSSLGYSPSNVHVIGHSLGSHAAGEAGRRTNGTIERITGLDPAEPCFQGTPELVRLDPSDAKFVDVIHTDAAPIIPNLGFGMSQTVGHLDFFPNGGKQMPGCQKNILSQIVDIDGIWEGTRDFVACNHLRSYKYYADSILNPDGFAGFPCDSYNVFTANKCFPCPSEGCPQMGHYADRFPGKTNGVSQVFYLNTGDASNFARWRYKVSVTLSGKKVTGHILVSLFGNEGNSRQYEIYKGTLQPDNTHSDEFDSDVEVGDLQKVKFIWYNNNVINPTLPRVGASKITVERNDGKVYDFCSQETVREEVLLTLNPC
Description: Lipase inhibitory activity measurement (4-UMO fluorescence substrate). As to conditions: for IC50: 4-UMO substrate, pH 8.0, 25 degrees, 30 minutes of reaction; for lipase inhibitory activity (in words): summary of Table 1. In kind it is biochemical. As to the method:
Lipase activity measurement was carried out by using oleic acid ester of fluorescence 4-methylumbelliferone (4-UMO) as a substrate, and measuring the fluorescence of 4-methylumbelliferone produced by reaction.
Substrate 4-UMO (Sigma) is prepared as 0.1 M solution in DMSO and diluted 1000 times with the buffer mentioned above. Similarly, lipase (porcine pancreatic lipase (Sigma)) is prepared as 400 U/ml solution in the buffer mentioned above and used in enzymatic measurement.
50 μl of 4-UMO buffer solution and 25 μl of distilled water (or sample solution) are placed in 96 well microplate and mixed at 25 degrees, followed by adding 25 μl of lipase buffer solution to start enzyme reaction. After 30 minutes of reaction, 100 μl of 0.1 M citric acid buffer (pH 4.2) was added to terminate the reaction, and fluorescence of 4-methylumbelliferone (excitation wavelength: 355 nm, fluorescence wavelength: 460 nm) produced by the reaction was measured with a fluorescence plate reader (Labsystems, Fluoroskan Asent CF).

This note sets out measurements from patent publication US7754695B2, “Lipase inhibitors” (Suntory Holdings Limited, priority 2004, dated 2010).

In the case of `O=C(O[C@@H]1O[C@H](CO)[C@@H](O)[C@H](O)[C@H]1O)c1cc(O)c(O)c(O)c1` [β-glucogallin (2), β-glucogallin], the IC50 is over 50 µM. Still for that read-out and setting: in the case of `O=C(O[C@@H]1C[C@](O)(C(=O)O)C[C@@H](O)[C@H]1O)c1cc(O)c(O)c(O)c1` [theogallin (3), theogallin] it was over 50 µM. On to `O=C(O)c1cc(O)c(O)c(O)c1` [Galli acid (1), Gallic acid, reference compound], for which the 50% inhibitory concentration (IC50) is over 50 µM and the “lipase inhibitory activity (in words)” value is recorded as “showed no activity”. The like results for `O=C(O[C@@H]1O[C@@H]2COC(=O)c3cc(O)c(O)c(O)c3-c3c(cc(O)c(O)c3O)C(=O)O[C@H]2[C@H](O)[C@H]1O)c1cc(O)c(O)c(O)c1` [strictinin (5), strictinin] were, in that order, 0.472 µM and “showed lipase inhibitory activity”. Regarding `O=C(OC[C@H]1OC(OC(=O)c2cc(O)c(O)c(O)c2)[C@H](OC(=O)c2cc(O)c(O)c(O)c2)[C@@H](O)[C@@H]1OC(=O)c1cc(O)c(O)c(O)c1)c1cc(O)c(O)c(O)c1` (some centres unmarked) [1,2,4,6-tetra-GA-Glc (6), 1,2,4,6-tetragalloylglucose], the midpoint of inhibition, the IC50, lay at 0.203 µM and the “lipase inhibitory activity (in words)” value is reported as “showed lipase inhibitory activity”.

Turning to `O=C(O[C@@H]1O[C@@H]2COC(=O)c3cc(O)c(O)c(O)c3-c3c(cc(O)c(O)c3O)C(=O)O[C@H]2[C@H](OC(=O)c2cc(O)c(O)c(O)c2)[C@H]1OC(=O)c1cc(O)c(O)c(O)c1)c1cc(O)c(O)c(O)c1` [Tellimagrandin2 (8), Tellimagrandin 2], the IC50 came out at 0.074 µM and the “lipase inhibitory activity (in words)” value is reported as “showed lipase inhibitory activity”.

Take `O=C(OCC1OC(OC(=O)c2cc(O)c(O)c(O)c2)C(O)C(O)C1OC(=O)c1cc(O)c(O)c(O)c1)c1cc(O)c(O)c(O)c1` [1,4,6-tri-O-galloyl-D-glucose (4), 1,4,6-tri-O-galloyl-D-glucose]: the IC50 came out at 1.23 µM and the “lipase inhibitory activity (in words)” value is listed as “showed lipase inhibitory activity”. The like results for `O=C(O[C@H]1[C@@H]2OC(=O)c3cc(O)c(O)c(O)c3-c3c(cc(O)c(O)c3O)C(=O)OC[C@H]2OC(O)[C@@H]1OC(=O)c1cc(O)c(O)c(O)c1)c1cc(O)c(O)c(O)c1` (some centres unmarked) [Tellimagrandin1 (7), Tellimagrandin 1] were, in that order, 0.127 µM and “showed lipase inhibitory activity”.

In general, IC50 refers to the concentration at which inhibition is half-maximal. High values mean lower potency, low ones higher potency.
